Test results reported in patent US20110152313A1 (MACQUARIE UNIVERSITY, priority 2008, published 2011).
pKd: −log10 of the molar value. Converted amounts (≈) assume the structure as drawn.

Assays:
[1] = test system: new blood vessel growth from isolated rat aorta fragments; assay: rat aorta fragment vessel outgrowth (anti-angiogenic) assay in fibrin gel; format: cell-based; conditions: 120 h, read-out: Anti-Angiogenesis Activity IC50 (concentration that inhibits 50% of the new blood vessel growth); rat aorta fragments, day 5; >100 = no inhibition under the assay conditions
Procedure: A potentially non-toxic method of treating cancer is to inhibit angiogenesis. The human anti-angiogenic and therefore antiproliferative action of drugs can be assessed by many methods well known in the prior art. […] Briefly, thoracic aortas were excized from 3-9 month-old female Fischer rats, cross-sectioned at 1 mm intervals and embedded individually in 0.5 ml of a fibrin gel containing 5 μg/ml of aprotinin (to prevent fibrinolysis) in each well of a 48-well culture plate. Immediately after vessel embedding, 0.5 ml/well of medium M199, supplemented with 20% foetal calf serum, 0.1% E-aminocaproic acid, 1% L-glutamine and antibiotics, was added. Each test compound (10 mg/ml, dissolved in DMSO) was added to the medium (maximum final concentration of test compound 100 μg/ml) and each treatment was performed in six wells. Control cultures received medium containing 0.1% DMSO but without any test compound. […] Vessels were cultured at 37° C. in 5% CO2 in air for 5 days and the medium, with or without test compound, was changed on day 4. Vessel growth was quantified manually under 40× magnification on day 5, with growth being estimated as the percentage of the field (×40) around the vessel fragment that was occupied by vessel outgrowths. By counting the number of vessels formed after 5 days at three to six different concentrations (in triplicate) it is possible to determine an IC50 values for each compound compared to a positive and negative (solvent) control. The percentage inhibition (0-100%) is plotted against compound concentration and a 3-parameter sigmoidal (dose-response) curve fitted (Graphpad Prism v 4) by non-linear regression.

CAMKK1 = CAMKK1 (Homo sapiens, UniProt Q8N5S9); assay: kinase binding constant, 11-point dose response (T7 phage, qPCR); conditions: >30 = no inhibition at highest concentration tested
Sequence of CAMKK1 (Q8N5S9 whole entry): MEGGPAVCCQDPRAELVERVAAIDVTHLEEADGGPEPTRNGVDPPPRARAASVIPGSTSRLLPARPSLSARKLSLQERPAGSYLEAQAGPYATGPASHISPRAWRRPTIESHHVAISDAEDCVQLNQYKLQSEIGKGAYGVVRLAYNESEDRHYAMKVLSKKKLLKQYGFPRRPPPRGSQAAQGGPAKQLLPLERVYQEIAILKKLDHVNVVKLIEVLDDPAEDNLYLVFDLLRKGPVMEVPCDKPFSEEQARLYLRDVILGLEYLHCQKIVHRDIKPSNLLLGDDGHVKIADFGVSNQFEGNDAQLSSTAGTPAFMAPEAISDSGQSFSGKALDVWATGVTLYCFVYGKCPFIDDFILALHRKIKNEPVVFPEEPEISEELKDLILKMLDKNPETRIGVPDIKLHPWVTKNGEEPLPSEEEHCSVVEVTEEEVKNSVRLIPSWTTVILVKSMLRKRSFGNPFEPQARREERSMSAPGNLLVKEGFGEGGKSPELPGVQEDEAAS

Compound	IC50 [1]	pKd (CAMKK1)
Nc1nc2c(-c3cc(Br)c(Br)[nH]3)nccc2[nH]1 [Ageladine A, ageladine A, reference compound]	25 µg/mL (≈ 70 µM)	–
Nc1nc2c(-c3ccccn3)nccc2[nH]1 [drawing 35, 4-(pyrid-2-yl)-1H-imidazo[4,5-c]pyridin-2-amine]	–	< 4.52
